Measured values from US20140309276A1, “Pharmaceutical Composition Comprising a Mixture of Carboxylated Oligonucleotides” (priority 2013, published 2014).

Columns and labels:
benzidine skin sarcoma = assay: Anticancer activity on benzidine skin sarcoma in mice; assay type: in vivo, Barbados mice; details: n = 10
Description: Composition led to a 95% degeneration of tumor cells. To confirm the in vivo antitumor activity, Composition was studied in benzidine skin sarcoma and reinjected ascites adenocarcinomas in Barbados mice. In five mice with adenocarcinomas, the distribution of the Composition liposome throughout the animals' bodies was also studied using a fluorescent probe dissolved in a phospholipid layer.
A Study of the Anticancer Activity of Composition on Benzidine Sarcoma. Before applying it to the silica gel, 7 ml of a solution of 2% benzidine and 0.9% sodium chloride was added until an opalescent suspension was formed (1 g silica gel for 5 ml NaCl solution). Twenty-five Barbados mice of both sexes with a weight of 18-20 g that were kept on a vivarium diet were administered benzidine and phorbol acetate immobilized on silica gel subcutaneously near the neck. After two weeks, 18 animals had developed tumors of different sizes in the form of a small bump on the neck near the silica gel granulomas. Each group of animals was administered the corresponding compound parenterally at a dose of 100 mcg/kg weight twice a day for two weeks, beginning at 16 days after administration of the carcinogen.

[1] = system: Ehrlich's ascites adenocarcinoma; assay: Antitumor activity on Ehrlich's ascites adenocarcinoma in mice; assay type: in vivo, Barbados mice; details: n = 10
Method: The antitumor activity of the compositions were studied in models of Ehrlich's ascites carcinoma in young Barbados mice of both sexes with weights between 15-17 g (68 individuals), which were kept on a vivarium diet.
45 mice were inoculated from a mouse with adenocarcinoma using an insulin syringe with 0.1 ml ascitic fluid in the region of the liver.
Ten mice were administered Composition in liposome form (see Table 5). Ten more mice were administered the Composition substance, and ten more were administered a 0.9% solution of sodium chloride with lipids.

HeLa-2 cells = assay: Anticancer (cytopathic) activity in a culture of HeLa-2 cells, Minimum Active Dose; assay type: cell-based; details: minimum amount causing degeneration of 90-95% of the cells; 199 medium; observed 5 days
Method: Anticancer activity of Composition in a cell culture was made in a culture of HeLa-2 cells. For this purpose, 2-12 mcg of Composition per ml of medium were added to the 199 medium. A culture without Composition in it was used as a control. Cultures were observed daily over the course of five days. The Minimum Active Dose (MAD) of Composition was also considered to be the minimum amount of the drug that caused a degeneration of 90-95% of the cells (Table 1.)

## CC(=O)O[C@@]12CO[C@@H]1C[C@H](O)[C@@]1(C)C(=O)[C@H](O)C3=C(C)[C@@H](OC(=O)[C@H](O)[C@@H](NC(=O)OC(C)(C)C)c4ccccc4)C[C@@](O)([C@@H](OC(=O)c4ccccc4)[C@H]21)C3(C)C [Taxotere]
Benzidine skin sarcoma
  Animal Survival: 28 ± 1.1 days
[1]; in liposomes (+)
  Time of Death of Animals after the First Injection, Average Value, Experimental Animals: 15 ± 0.5 days
[1]; substance without liposomes (−)
  Time of Death of Animals after the First Injection, Average Value, Experimental Animals: 14 ± 0.12 days
HeLa-2 cells
  MAD (Minimum Active Dose): 10 µg/mL
